Reference: US20110045100A1, “Antimalarial Quinolines and Methods of Use Thereof” (GEORGETOWN UNIVERSITY, priority 2008, published 2011)

How the values were obtained:
μ-oxo dimeric heme = assay: Heme affinity measurement, μ-oxo dimeric heme; assay type: binding; conditions: aqueous solution
Protocol: (§1) 1.5 mL cuvettes containing freshly prepared samples of 4.8 μM heme were titrated with increasing concentrations (0-50 μM) of drug. Following each addition, the sample was mixed and heme absorbance then recorded at 402 nm. Control experiments were performed by titrating 4.8 μM heme with similar volumes of solvent and no drug present. To measure affinity for μ-oxo dimeric heme, the procedure was similar except hemin was first converted to dimeric form in mild alkaline solution, followed by titration to pH 7.5 using Hepes buffer. The absorbance peak analysis was done using Microsoft excel and Ka were extracted from the ΔAbs402 plots via Scatchard analysis using Microsoft Excel and Sigma plot 9.0.1 software.

[1] = pKa determination by acid/base titration; assay type: physicochemical; conditions: distilled water; measured; read-out: quinolyl N pKa
Protocol: SPARC pKa calculator is an online tool developed at the University of Georgia by S. W. Karickhoff, L. A. Carreira and S. H. Hilal. Experimental pKa were determined using an Accumet AB15 pH meter and a calomel electrode. 10 mM solutions of the drugs (as dibasic salts) were made in distilled H2O and titrated at room temperature (23.0±2.0° C.) using 0.1 M NaOH. Titration plots were generated and pKa's extracted via inflection points from the second derivative plots; (Δ^2pH/ΔV^2) vs. V, where V represents the volume of the titrant added and ΔV is the volume increment.

monomeric heme = assay: Heme affinity measurement, monomeric heme; assay type: binding; conditions: acidic 40% DMSO
Protocol: To test whether binding to Hz precursors is also altered for the 4S and 4O derivatives, binding constants were measured as previously described for both μ-oxo dimeric and monomeric heme (FIG. 25). […] J. Am. Chem. Soc. 1988, 110, 4391-4395; Egan, T. J.; Mavuso, W. W.; Ross, D. C.; Marques, H. M. Thermodynamic factors controlling the interaction of quinoline antimalarial drugs with ferriprotoporphyrin IX. J. Inorg. Biochem. 1997, 68, 137-145; and Egan, T. J.; Ncokazi, K. K. Effects of solvent composition and ionic strength on the interaction of quinoline antimalarials with ferriprotoporphyrin IX. J. Inorg. Biochem. 2004, 98, 144-152. Due to the instability of monomeric heme in aqueous solution, the affinity to monomer measured by conventional absorbance experiments can only be estimated using 40% DMSO in water as solvent. Egan, T. J.; Ncokazi, K. K. Effects of solvent composition and ionic strength on the interaction of quinoline antimalarials with ferriprotoporphyrin IX. J. Inorg. Biochem. 2004, 98, 144-152. At appropriately acidic solution pH (≦5.0) FPIX heme is primarily monomeric, whereas at pH 7, appreciable dimer is formed. As shown (FIG. 25), CQ and compounds 88, 93, and 98 all have poor affinity for monomeric heme in acidic 40% DMSO. To further test if CQ interacts with monomeric heme, T1 measurements of the CQ protons were made with samples containing 10 mM CQ and 2 mM hemin chloride in 40% DMSO at pH 5.0. Although the lines are broadened in this solution due to paramagnetic susceptibility, the measured T1's indicate only weak paramagnetic relaxation. For example, the measured T1 for CQ proton 1 in this sample is 0.70 s, whereas at pH 7.0 the T1 for the same proton is 0.039 s.
To measure affinity for monomeric heme, 1.2 mM stock solutions of hemin (sodium salt from Sigma-Aldrich) were prepared in DMSO and stored as […] aliquots. 4.8 μM working solutions were prepared in 40% DMSO/phosphate buffer (fresh stocks prepared daily). Stock solutions of CQ and CQ analogues (diphosphate or dihydrochloride salts) were prepared in 40% DMSO/phosphate buffer and used for the titration experiments (all drugs dilutions were prepared in the same buffer).
as §1, with “To measure affinity for μ-oxo dimeric heme, the procedure was similar except hemin was first converted to dimeric form in mild alkaline solution, followed by titration to pH 7.5 using Hepes buffer.” left out

hemozoin (Hz) formation = assay: Quantification of in vitro Hz formation inhibition; assay type: biochemical
Protocol: A stock solution of 5 mM hemin (Fluka) in 0.1M NaOH was prepared and stored as small aliquots at -20° C. Fresh aliquots were thawed daily to room temperature before use. Lecithin stock solutions were prepared by dissolving in distilled water to 10 mg/ml and similarly stored. 0.5 M propionate was used to buffer experiments in the pH range 5.2-5.6. The assay mixture (1 mL volumes) contained: 200 μL lecithin solution ([…] final) 20 μL hematin (100 μM final concentration) 20 μ[…] propionate buffer (X) μL drug (dependant on the concentration required 0-1000 μM). The addition sequence involved first adding the lecithin followed by heme, HCl, propionate buffer and finally the drug. Each sample was prepared in triplicate. Following addition of the reagents the samples were incubated at 37° C. with constant shaking for 18 h. After 18 h the assay was stopped by spinning the samples at 13,200 rpm for 10 minutes followed by carefully aspirating off the supernatant. The pellet was then resuspended in 50 mM bicarbonate buffer pH 9.0 (1 mL) and gently shaken at room temperature for 30 minutes to dissolve uncrystallized heme. The samples were then centrifuged as above and the supernatant removed. […] The samples were then dissolved in 0.1M NaOH to solubilize β-hematin to free heme and β-hematin formed was then quantified via heme absorbance at 402 nm. Calibration curves were prepared by titrating increasing amounts of heme in the same solvent vs. absorbance at 402 nm.

pKa [1]: 4.5
fold higher IC50 for Hz inhibition relative to 98 (hemozoin (Hz) formation): roughly 5 fold
SMILES: CCN(CC)CCCCOc1ccnc2cc(Cl)ccc12 [compound 93, O-(7-Chloro-4-quinolyl)-4-(N,N-diethylamino)butanol]
affinity (association constant Ka) vs. μ-oxo dimer (μ-oxo dimeric heme): quite similar
affinity for monomeric heme (monomeric heme): poor affinity
ability to inhibit Hz formation vs. that measured for CQ and 8 (hemozoin (Hz) formation; FIG. 26): significantly lower
